23 compounds from patent publication US11845760B2, “PRMT5 inhibitors” (AMGEN INC., priority 2020, dated 2023) can be followed below.

One experiment relates to HCT116 MTAP null cells. The experiment can be described thus: HCT116 MTAP null cell line proliferation (CellTiter-Glo cell viability, 6 days). Type of experiment: cell-based. Particulars: HCT116 MTAP null cells, 6 days of treatment, CellTiter-Glo cell viability, read-out: HCT-116 MTAP null IC50. In short, it runs like this:
(§1)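 Viability by CellTiter-Glo after 6 days' drug exposure in wild-type HCT116 and its MTAP-null knockout, with DMSO-only control. Dosing used either 1:3 steps (top 1 or 10 μM) or 22 points in 1:2 steps (top 10 or 50 μM). IC50 taken where the fitted curve crosses 50% of control.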
Background: In ATP-based viability assays light output follows the ATP content of the culture.

The subject of a further experiment is HCT116 WT cells. In words: HCT116 WT cell line proliferation (CellTiter-Glo cell viability, 6 days). Type of experiment: cell-based. Conditions: HCT116 WT (parent) cells, 6 days of treatment, CellTiter-Glo cell viability, read-out: HCT-116 WT IC50. A digest of the protocol: as §1

Read-outs that look alike come from different tables or passages of the source.

By IC50 is commonly meant the concentration at which inhibition is half-maximal. Take `Nc1nc2cnc(C(=O)N3CCOCC3c3ccc(F)c(OC(F)(F)F)c3)cc2c2c1COC2` (racemic) [Example 345, (4-amino-1,3-dihydrofuro[3,4-c][1,7]naphthyridin-8-yl)((3R)-3-(4-fluoro-3-(trifluoromethoxy)phenyl)-4-morpholinyl)methanone and (4-amino-1,3-dihydrofuro[3,4-c][1,7]naphthyridin-8-yl)((3S)-3-(4-fluoro-3-(trifluoromethoxy)phenyl)-4-morpholinyl)methanone]: the IC50 in the experiment with HCT116 MTAP null cells (HCT116-MTAP null, 144 h) came to 346 nM; with HCT116 WT cells (Homo sapiens, HCT-116, 144 h), 19100 nM.
On the same counts, the results for `Nc1nc2ccc(C(=O)N3CCOCC3c3ccc(C(F)(F)F)nc3)cc2c2c1COC2` (racemic) [Example 513, (4-amino-1,3-dihydrofuro[3,4-c]quinolin-8-yl)-[rac-(3S)-3-[6-(trifluoromethyl)-3-pyridyl]morpholin-4-yl]methanone] are 380 nM and over 10000 nM.
For `C[C@H]1COC[C@@H](c2ccc(OC(F)F)nc2)N1C(=O)c1cc2c3c(c(N)nc2cn1)COC3` (racemic) [Example 318, (4-amino-1,3-dihydrofuro[3,4-c][1,7]naphthyridin-8-yl)((3R,5S)-3-(6-(difluoromethoxy)-3-pyridinyl)-5-methyl-4-morpholinyl)methanone and (4-amino-1,3-dihydrofuro[3,4-c][1,7]naphthyridin-8-yl)((3S,5R)-3-(6-(difluoromethoxy)-3-pyridinyl)-5-methyl-4-morpholinyl)methanone] the same measures were 82 nM and 2780 nM.
On the same counts, the results for `C[C@@H]1COC[C@H](c2ccc(C(F)(F)F)cn2)N1C(=O)c1cc2c(cn1)nc(N)c1cnn(C)c12` [Example 520, (4-amino-1-methyl-1H-pyrazolo[4,3-c][1,7]naphthyridin-8-yl)((3R,5S)-3-methyl-5-(5-(trifluoromethyl)-2-pyridinyl)-4-morpholinyl)methanone] are 18 nM and 120 nM.
Consider `C[C@H]1OCc2c1c(N)nc1cnc(C(=O)N3CCOC[C@H]3c3ccc(F)c(OC(F)(F)F)c3)cc21` (racemic) [Example 358, ((3R)-4-amino-3-methyl-1,3-dihydrofuro[3,4-c][1,7]naphthyridin-8-yl)((3R)-3-(4-fluoro-3-(trifluoromethoxy)phenyl)-4-morpholinyl)methanone and ((3R)-4-amino-3-methyl-1,3-dihydrofuro[3,4-c][1,7]naphthyridin-8-yl)((3S)-3-(4-fluoro-3-(trifluoromethoxy)phenyl)-4-morpholinyl)methanone], for which the IC50 with HCT116 MTAP null cells (HCT116-MTAP null, 144 h) was found to be 313 nM; with HCT116 WT cells (Homo sapiens, HCT-116, 144 h), 14000 nM.
Regarding `C[C@H]1COC[C@@H](c2ccc(C#N)cc2)N1C(=O)c1cc2c3c(c(N)nc2cn1)COC3` (racemic) [Example 389, 4-((3R,5S)-4-((4-amino-1,3-dihydrofuro[3,4-c][1,7]naphthyridin-8-yl)carbonyl)-5-methyl-3-morpholinyl)benzonitrile and 4-((3S,5R)-4-((4-amino-1,3-dihydrofuro[3,4-c][1,7]naphthyridin-8-yl)carbonyl)-5-methyl-3-morpholinyl)benzonitrile], the IC50 in the experiment with HCT116 MTAP null cells (HCT116-MTAP null, 144 h) stood at 52 nM; in the experiment with HCT116 WT cells (Homo sapiens, HCT-116, 144 h), 1610 nM.
For `Cn1ncc2c(N)nc3cc(F)c(C(=O)N4CC(O)(c5ccc(C(F)(F)F)cc5)C4)cc3c21` [Example 439, (4-amino-7-fluoro-1-methyl-1H-pyrazolo[4,3-c]quinolin-8-yl)(3-hydroxy-3-(4-(trifluoromethyl)phenyl)-1-azetidinyl)methanone] the same measures were 21 nM and 887 nM.
For `Cc1ccc([C@@H]2COCCN2C(=O)c2cc3c4c(c(N)nc3cn2)COC4)cn1` (single isomer, unassigned) [Example 608] the same measures were over 1000 nM and over 10000 nM.
`Nc1nc2ccc(C(=O)N3CCOC[C@H]3c3cccc(Cl)c3)cc2c2c1COC2` (single isomer, unassigned) [Example 578]: the IC50 is over 1000 nM with HCT116 MTAP null cells (HCT116-MTAP null, 144 h) and over 10000 nM with HCT116 WT cells (Homo sapiens, HCT-116, 144 h).
For the compound `Nc1nc2cnc(C(=O)N3CCCOC[C@@H]3c3ccc(C(F)(F)F)cc3)cc2c2c1COC2` (single isomer, unassigned) [Example 597, (4-amino-1,3-dihydrofuro[3,4-c][1,7]naphthyridin-8-yl)((3S)-3-(4-(trifluoromethyl)phenyl)-1,4-oxazepan-4-yl)methanone or (4-amino-1,3-dihydrofuro[3,4-c][1,7]naphthyridin-8-yl)((3R)-3-(4-(trifluoromethyl)phenyl)-1,4-oxazepan-4-yl)methanone], the IC50 with HCT116 MTAP null cells (HCT116-MTAP null, 144 h) was 866 nM; in the experiment on HCT116 WT cells (Homo sapiens, HCT-116, 144 h) it was over 10000 nM.
For `C[C@@H]1COC[C@H](c2ccc(OC(F)F)nn2)N1C(=O)c1cc2c(cc1F)nc(N)c1cnn(C)c12` [Example 561, (4-amino-7-fluoro-1-methyl-1H-pyrazolo[4,3-c]quinolin-8-yl)((3S,5R)-3-(6-(difluoromethoxy)-3-pyridazinyl)-5-methyl-4-morpholinyl)methanone] the same measures were 6 nM and 120 nM.
For `Cn1ncc2c(N)nc3cc(F)c(C(=O)N4C[C@H]5C[C@@]5(c5ccc(C(F)(F)F)cc5)C4)cc3c21` (single isomer, unassigned) [Example 621] the same measures were 175 nM and 4410 nM.
On to `C[C@H]1OCc2c1c(N)nc1ccc(C(=O)N3[C@@H](C)COC[C@H]3c3ccc(OC(F)(F)F)cn3)cc21` (racemic) [Example 377, ((3R)-4-amino-3-methyl-1,3-dihydrofuro[3,4-c]quinolin-8-yl)((3R,5S)-3-methyl-5-(5-(trifluoromethoxy)-2-pyridinyl)-4-morpholinyl)methanone and ((3R)-4-amino-3-methyl-1,3-dihydrofuro[3,4-c]quinolin-8-yl)((3S,5R)-3-methyl-5-(5-(trifluoromethoxy)-2-pyridinyl)-4-morpholinyl)methanone], for which the IC50 in the experiment with HCT116 MTAP null cells (HCT116-MTAP null, 144 h) was 37 nM; in the experiment on HCT116 WT cells (Homo sapiens, HCT-116, 144 h) it was 1110 nM.
For `Cn1ncc2c3cc(C(=O)N4CC[C@H](c5ccc(C(F)(F)F)cc5)C4)c(F)cc3nc(N)c21` [Example 437, (4-amino-7-fluoro-3-methyl-3H-pyrazolo[3,4-c]quinolin-8-yl)((3R)-3-(4-(trifluoromethyl)phenyl)-1-pyrrolidinyl)methanone] the same measures were 924 nM and 16000 nM.
On the same counts, the results for `COC(=O)[C@@H]1CN(C(=O)c2cc3c4c(c(N)nc3cc2F)COC4)C[C@H]1c1ccc(C(F)(F)F)cc1` (single isomer, unassigned) [Example 480] are 92 nM and 1750 nM.
As to `C[C@H]1OCc2c1c(N)nc1ccc(C(=O)N3C[C@@H](c4ccc(F)cc4)C(C)(C)C3)cc21` (single isomer, unassigned) [Example 462], the IC50 in the experiment with HCT116 MTAP null cells (HCT116-MTAP null, 144 h) stood at 595 nM; in the experiment with HCT116 WT cells (Homo sapiens, HCT-116, 144 h) it was 14100 nM.
For `Nc1nc2cc(Cl)c(C(=O)N3CC[C@@](O)(c4ccc(C(F)(F)F)cc4)C3)cc2c2c1COC2` (single isomer, unassigned) [Example 477] the same measures were 547 nM and over 50000 nM.
For `C[C@@H]1COC[C@H](c2ccc(OCCC(F)(F)F)nn2)N1C(=O)c1cc2c3c(c(N)nc2cc1F)[C@@H](C)OC3` [Example 565, ((3R)-4-amino-7-fluoro-3-methyl-1,3-dihydrofuro[3,4-c]quinolin-8-yl)((3R,5S)-3-methyl-5-(6-(3,3,3-trifluoropropoxy)-3-pyridazinyl)-4-morpholinyl)methanone] the same measures were 6 nM and 72 nM.
As for `CC(C)(C)OC(=O)N1CCN(C(=O)c2cc3c4c(c(N)nc3cn2)COC4)[C@H](c2ccc(C(F)(F)F)cc2)C1` (single isomer, unassigned) [Example 590], the figures for the IC50 in the experiment with HCT116 MTAP null cells and in the experiment on HCT116 WT cells were 56 nM and 1800 nM, respectively.
In the case of `C[C@H]1OCc2c1c(N)nc1ccc(C(=O)N3[C@@H](C)COC[C@H]3c3ccc(C(F)(F)F)nc3)cc21` (racemic) [Example 305, ((3R)-4-amino-3-methyl-1,3-dihydrofuro[3,4-c]quinolin-8-yl)((3R,5S)-3-methyl-5-(6-(trifluoromethyl)-3-pyridinyl)-4-morpholinyl)methanone and ((3R)-4-amino-3-methyl-1,3-dihydrofuro[3,4-c]quinolin-8-yl)((3S,5R)-3-methyl-5-(6-(trifluoromethyl)-3-pyridinyl)-4-morpholinyl)methanone], the IC50 is 49 nM in the experiment on HCT116 MTAP null cells (HCT116-MTAP null, 144 h) and 611 nM in the experiment with HCT116 WT cells (Homo sapiens, HCT-116, 144 h).
For `Nc1nc2ccc(C(=O)N3CCOC[C@@H]3c3ccc(OC(F)(F)F)cc3)cc2c2c1COCC2` [Example 484, (5-amino-2,4-dihydro-1H-pyrano[3,4-c]quinolin-9-yl)-[(3S)-3-[4-(trifluoromethoxy)phenyl]morpholin-4-yl]methanone] the same measures were 656 nM and over 10000 nM.
In the case of `Nc1nc2cnc(C(=O)N3CCCC[C@H]3c3ccc(C(F)(F)F)cc3)cc2c2c1COC2` (single isomer, unassigned) [Example 486], the half-maximal inhibitory concentration (IC50) in the experiment with HCT116 MTAP null cells (HCT116-MTAP null, 144 h) was over 1000 nM; in the experiment with HCT116 WT cells (Homo sapiens, HCT-116, 144 h) it was over 10000 nM.
For `Nc1nc2cc(F)c(C(=O)N3CCOCC3c3ccc(F)c(OC(F)(F)F)c3)cc2c2c1COC2` (racemic) [Example 347, (4-amino-7-fluoro-1,3-dihydrofuro[3,4-c]quinolin-8-yl)((3R)-3-(4-fluoro-3-(trifluoromethoxy)phenyl)-4-morpholinyl)methanone and (4-amino-7-fluoro-1,3-dihydrofuro[3,4-c]quinolin-8-yl)((3S)-3-(4-fluoro-3-(trifluoromethoxy)phenyl)-4-morpholinyl)methanone] the same measures were 325 nM and 4700 nM.
